The target in this test is T1, glutathione S-transferase (GST)-fused full-length human Syk protein (Homo sapiens, UniProt P43405).
T1 construct: (GST)-fused full-length human Syk protein; GST (glutathione S-transferase); purchased Carna Biosciences
Nature of the test: Syk enzyme assay. The test is classed as biochemical. Summed up: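 GST-tagged full-length human Syk (baculovirus) preincubated with compound 15 min at room temperature (pH 7.0, 10 mM MgCl2), then reacted 40 min with 0.4 μM biotinylated peptide substrate and 27 μM ATP (final). Phosphorylation read by HTRF (615/665 nm) after EDTA stop; IC50 reported.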

Setting [1] is: Syk enzyme assay, Test Example 1, read-out: IC50 of Syk-inhibitory activity.

The values that follow come from patent publication US8895585B2, “Nicotinamide derivative or salt thereof” (FUJIFILM Corporation, priority 2010, dated 2014).

The IC50 is the concentration needed to halve the response being measured.

Where two headings read alike, the source gives them in different places.

Regarding `COCCn1ccc2cc(Nc3nc(N[C@@H]4CCCC[C@@H]4N)c(F)cc3C(N)=O)cc(F)c21` (relative stereo) [Example 004-081, 6-(cis-2-aminocyclohexylamino)-5-fluoro-2-((7-fluoro-1-(2-methoxyethyl)-1H-indol-5-yl)-amino)nicotinamide], the IC50 under setting [1] is below 10 nM.

Regarding `NC(=O)c1cc(F)c(N[C@H](Cc2ccccc2)C(N)=O)nc1Nc1cnc2ccccc2c1` [Example 012-025], the IC50 under setting [1] was 10 to 50 nM. The same measure, in the same setting: to `COCC(C)Oc1nccc2c(Nc3nc(N[C@@H]4CCCC[C@@H]4N)c(F)cc3C(N)=O)cccc12` (relative stereo) [Example 004-156, 6-(cis-2-aminocyclohexylamino)-5-fluoro-2-((1-((1-methoxypropan-2-yl)oxy)isoquinolin-5-yl)amino)nicotinamide] belongs below 10 nM; to `CCOc1cc(Nc2nc(NC3CCCCC3N)c(F)cc2C(N)=O)cc(OCC)n1` (centres unmarked) [Example 002-061], below 10 nM; to `NC(=O)c1cc(F)c(N[C@@H]2CCCC[C@@H]2N)nc1Nc1ccnc(COCc2ccccc2)c1` (relative stereo) [Example 004-192, 6-(cis-2-aminocyclohexylamino)-2-((2-((benzyloxy)methyl)pyridin-4-yl)amino)-5-fluoronicotinamide], 50 to 100 nM. On the same count and under the same terms, then `CCCC[C@H](CN)Nc1nc(Nc2cnc(C)c(C)c2)c(C(N)=O)cc1F` [Example 006-341, (R)-6-((1-aminohexane-2-yl)amino)-2-((5,6-dimethylpyridin-3-yl)amino)-5-fluoronicotinamide], with 10 to 50 nM; and `CCNc1nc(Nc2cnc3ccccc3c2)c(C(N)=O)cc1F` [Example 006-020, 6-(ethylamino)-5-fluoro-2-(quinolin-3-ylamino)nicotinamide], with 100 to 1000 nM. The same measure, in the same setting: to `CNc1cccc2cc(Nc3nc(N[C@@H]4CCCC[C@@H]4N)c(F)cc3C(N)=O)cnc12` (relative stereo) [Example 004-116, 6-(cis-2-aminocyclohexylamino)-5-fluoro-2-((8-(methylamino)quinolin-3-yl)amino)-nicotinamide] belongs below 10 nM; to `CCC[C@@H](Nc1nc(Nc2ccc3c(cnn3CC(F)F)c2)c(C(N)=O)cc1F)[C@H](C)N` [Example 006-424, 6-(((2S,3R)-2-aminohexan-3-yl)amino)-2-((1-(2,2-difluoroethyl)-1H-indazol-5-yl)amino)-5-fluoronicotinamide], 10 to 50 nM. `NC(=O)c1cc(F)c(NC2CCCCC2N)nc1Nc1ccnc(-c2cc(F)ccc2F)c1` (centres unmarked) [Example 002-145]: the IC50 under setting [1] is below 10 nM. Same read-out and setting: then `COc1cc(Nc2nc(N[C@@H]3CCCC[C@@H]3N)c(F)cc2C(N)=O)cnc1N1CCOCC1` [Example 004-233, 6-(((1R,2S)-2-aminocyclohexyl)amino)-5-fluoro-2-((5-methoxy-6-morpholinopyridin-3-yl)amino)nicotinamide], with 100 to 1000 nM; and `CCOc1nc2ccc(Nc3nc(NC4CCCCC4N)c(F)cc3C(N)=O)cc2nc1OCC` (centres unmarked) [Example 002-120], with below 10 nM; and `NC(=O)c1cc(F)c(N[C@H](c2ccccc2)[C@@H](N)c2ccccc2)nc1Nc1ccc2cccnc2c1` (racemic) [Example 006-141, 6-(((1R,2S)-2-amino-1,2-diphenylethyl)amino)-5-fluoro-2-(quinolin-7-ylamino)nicotinamide 6-(((1S,2R)-2-amino-1,2-diphenylethyl)amino)-5-fluoro-2-(quinolin-7-ylamino)nicotinamide], with 100 to 1000 nM. The same measure, in the same setting: to `NC(=O)c1cc(F)c(N[C@@H]2CCCC[C@@H]2N)nc1Nc1ccc2[nH]c(C(=O)NCc3ccccc3)cc2c1` (relative stereo) [Example 029-018, 5-((6-(cis-2-aminocyclohexylamino)-3-carbamoyl-5-fluoropyridin-2-yl)amino)-N-benzyl-1H-indole-2-carboxamide] belongs below 10 nM; to `COc1ccccc1C(=O)Nc1cncc(Nc2nc(NC3CCCCC3N)c(F)cc2C(N)=O)c1` (centres unmarked) [Example 027-024], 10 to 50 nM; to `NC(=O)c1cc(F)c(N[C@@H]2CCCC[C@@H]2N)nc1Nc1cnc2c(NS(=O)(=O)CCl)cccc2c1` (relative stereo) [Example 41-3, 6-(cis-2-aminocyclohexylamino)-2-((8-(2-chloromethylsulphonamide)quinolin-3-yl)amino)-5-fluoronicotinamide], 10 to 50 nM. On the same count and under the same terms, then `COc1cc(Nc2nc(N[C@H](c3ccccc3)[C@@H](N)c3ccccc3)c(F)cc2C(N)=O)cc(OC)c1` (racemic) [Example 006-137, 6-(((1R,2S)-2-amino-1,2-diphenylethyl)amino)-2-((3,5-dimethoxyphenyl)amino)-5-fluoronicotinamide 6-(((1S,2R)-2-amino-1,2-diphenylethyl)amino)-2-((3,5-dimethoxyphenyl)amino)-5-fluoronicotinamide], with 10 to 50 nM.

As for `CCCOc1ccc2cc(Nc3nc(NC4CCCCC4N)c(F)cc3C(N)=O)ccc2n1` (centres unmarked) [Example 002-104], under setting [1], the IC50 is below 10 nM.

In the case of `COc1cc(Nc2nc(NCCc3c[nH]c4ccccc34)c(F)cc2C(N)=O)cc(OC)c1` [Example 020-002], under setting [1], the IC50 fell in the range of 100 to 1000 nM. The same measure, in the same setting: then `COC(C)CCOc1ccc2cc(Nc3nc(NC4CCCCC4N)c(F)cc3C(N)=O)ccc2n1` (centres unmarked) [Example 002-099], with below 10 nM. `CC(C)C(Nc1nc(Nc2ccc3ncccc3c2)c(C(N)=O)cc1F)[C@H](C)N` (stereo partly drawn) [Example 006-158, 6-(((2S)-2-amino-4-methylpentan-3-yl)amino)-5-fluoro-2-(quinolin-6-ylamino)nicotinamide]: the IC50 under setting [1] was 10 to 50 nM. Turning to `COc1ncc(Nc2nc(NC3CCCCC3N)c(F)cc2C(N)=O)cc1-c1ccccc1` (centres unmarked) [Example 002-148], the IC50 under setting [1] lay within 10 to 50 nM. The same measure, in the same setting: to `CC[C@H](N)[C@@H](CC)Nc1nc(Nc2cnc(OC)c(-n3nccn3)c2)c(C(N)=O)cc1F` [Example 006-391, 6-(((3R,4S)-4-aminohexan-3-yl)amino)-5-fluoro-2-((6-methoxy-5-(2H-1,2,3-triazol-2-yl)pyridin-3-yl)amino)nicotinamide] belongs 10 to 50 nM; to `CC(C)C[C@H](CN)Nc1nc(Nc2cncc3ccccc23)c(C(N)=O)cc1F` [Example 006-231], below 10 nM; to `NC(=O)c1cc(F)c(N[C@@H]2CCCC[C@@H]2N)nc1Nc1cncc(-n2ccnc2)c1` (relative stereo) [Example 006-127, 2-((5-(1H-imidazol-1-yl)pyridin-3-yl)amino)-6-((cis-2-aminocyclohexyl)amino)-5-fluoronicotinamide], 10 to 50 nM. Still for that read-out and setting: then `C[C@H](N)[C@@H](CC1CC1)Nc1nc(Nc2ccc3c(F)nn(C)c3c2)c(C(N)=O)cc1F` [Example 006-440, 6-(((2R,3S)-3-amino-1-cyclopropylbutan-2-yl)amino)-5-fluoro-2-((3-fluoro-1-methyl-1H-indazol-6-yl)amino)nicotinamide], with 10 to 50 nM; and `C#CCNc1nc(Nc2cc(OC)cc(OC)c2)c(C(N)=O)cc1F` [Example 016-012], with 100 to 1000 nM.

`CCCC[C@H](CN)Nc1nc(Nc2cccc3c2cnn3C)c(C(N)=O)cc1F` [Example 006-339, (R)-6-((1-aminohexan-2-yl)amino)-5-fluoro-2-((1-methyl-1H-indazol-4-yl)amino)nicotinamide]: the IC50 under setting [1] fell in the range of 10 to 50 nM. `Cc1cc(Nc2nc(NC3CCCCC3N)c(F)cc2C(N)=O)cnc1N1CCOCC1` (centres unmarked) [Example 002-071]: the IC50 under setting [1] lay within 10 to 50 nM. On the same count and under the same terms, then `NC(=O)c1cc(F)c(N[C@@H]2CCCC[C@@H]2N)nc1Nc1cncc(-c2ccccc2Cl)c1` (relative stereo) [Example 004-146, 6-(cis-2-aminocyclohexylamino)-2-((5-(2-chlorophenyl)pyridin-3-yl)amino)-5-fluoronicotinamide], with below 10 nM; and `NC(=O)c1cc(F)c(N[C@@H]2CCCC[C@@H]2N)nc1Nc1cnc2c(F)cccc2c1` (relative stereo) [Example 004-135, 6-(cis-2-aminocyclohexylamino)-5-fluoro-2-((8-fluoroquinolin-3-yl)amino)nicotinamide], with 10 to 50 nM. On the same count and under the same terms, then `COc1nc2ccc(Nc3nc(NC4CCCCC4N)c(F)cc3C(N)=O)cc2nc1OC` (centres unmarked) [Example 002-119], with below 10 nM; and `NC(=O)c1cc(F)c(NC2CCCC[C@@H]2N)nc1Nc1cnc2c(NS(=O)(=O)c3ccc(C(F)(F)F)cc3)cccc2c1` (stereo partly drawn) [Example 41-7, 6-(cis-2-aminocyclohexylamino)-5-fluoro-2-((8-(4-(trifluoromethyl)phenylsulphonamide)-quinolin-3-yl)amino)nicotinamide], with 100 to 1000 nM. Same read-out and setting: then `NC(=O)c1cc(F)c(N[C@@H]2CCCC[C@@H]2N)nc1Nc1ccc(-n2ccnc2)nc1` [Example 006-535, 2-((6-(1H-imidazole-1-yl)pyridin-3-yl)amino)-6-(((1R,2S)-2-aminocyclohexyl)amino)-5-fluoronicotinamide], with 50 to 100 nM; and `NC(=O)c1cc(F)c(N[C@@H]2CCCC[C@@H]2N)nc1Nc1cc(-n2nccn2)nc2[nH]ccc12` (relative stereo) [Example 004-067, 2-((6-(2H-1,2,3-triazol-2-yl)-1H-pyrrolo[2,3-b]pyridin-4-yl)amino)-6-(cis-2-aminocyclohexylamino)-5-fluoronicotinamide], with below 10 nM.

As to `NC(=O)c1cc(F)c(NC2CCCCC2N)nc1Nc1ccnc(-c2ccc(F)cc2F)c1` (centres unmarked) [Example 002-133], the IC50 under setting [1] was below 10 nM. The same measure, in the same setting: to `NC(=O)c1cc(F)c(N[C@@H](C(N)=O)c2ccccc2)nc1Nc1ccc2ncsc2c1` [Example 012-004] belongs 10 to 50 nM. Consider `NC(=O)c1cc(F)c(Nc2cccnc2)nc1Nc1cnc2ccccc2c1` [Example 24, 5-fluoro-6-(pyridin-3-ylamino)-2-(quinolin-3-ylamino)nicotinamide], for which the IC50 (read-out: Syk-inhibitory activity (IC50)) is at most 1000 nM.
